Article PMC6781499 (Pharmaceutics, 2019)
Like-named read-outs stand apart in the source and are kept apart here.

Legend:
NOX4 = system: NOX4; parameters: method as in PMID 26975635; conditions: in vitro; cited from earlier work
[1] = system: ovariectomized (OVX) mice; parameters: method as in PMID 26975635; conditions: orally 10–20 mg/kg daily for 4 weeks; cited from earlier work
NOX1 = system: NOX1; parameters: method as in PMID 26975635; conditions: in vitro; cited from earlier work
[2] = system: bone marrow-derived macrophages (BMMs); parameters: method as in PMID 26975635; conditions: in vitro; cited from earlier work
NOX2 = system: NOX2; parameters: method as in PMID 26975635; conditions: in vitro; cited from earlier work
[3] = Pharmacokinetics of Ewha-18278 after IV and oral administration to rats (non-compartmental analysis, HPLC/UV plasma assay); type: in vivo, Sprague-Dawley rats; conditions: for F (absolute BA): PO 20 mg/kg vs IV 2 mg/kg
Experimental: The plasma sample (50 µL) with IS was deproteinized with twice the volume of acetonitrile (ACN). All HPLC analyses were performed on an Agilent 1100 series system (Palo Alto, CA, USA). Capcell-pak C18 MG120 column (3.0 mm × 250 mm, 5 µm, Shiseido, Tokyo, Japan) was the analytical column used. All the prepared samples were eluted with acetonitrile and water (65:35, v/v) containing 0.1% trifluoroacetic acid (TFA) at a flow rate of 0.5 mL/min. The sample reservoir and column oven were maintained at 4 °C and 40 °C, respectively. UV detection was performed at 284 nm and the injection volume was 30 µL.
All the animal procedures were approved by the Institutional Animal Care and Use Committee of Ewha Womans University (IACUC) (No. 2010-2-5, approved on 19 February 2010), Seoul, Korea. Seven-week-old male Sprague-Dawley rats (200–240 g) were used for the PK experiments.
The DMSO-based formulations were comprised of 10% DMSO and 90% saline-based solution (25% Cremophor® EL, 5% polyethylene glycol 400, 0.5% Tween® and 69.5% saline, v/v/v/v). The diazepam injection-based formulation applicable to humans was composed of 40% propylene glycol, 10% dehydrated ethanol, and 50% water (v/v/v). […] These concentrations were utilized to examine the effect of concentration on the PK parameters of the compound.
The rats were divided into five groups on the day of the drug administration. Two groups (n = 6) were administered the DMSO-based formulation: IV injection of 2 mg/kg and oral administration of 20 mg/kg. Three groups (n = 5–6) were treated with the diazepam injection-based formulation: IV injection of 2 mg/kg and oral administration of 20 mg/kg in two different concentrations (1 mg/mL and 2 mg/mL). The common carotid artery was catheterized for blood sampling. Blood sampling (0.2 mL) was conducted at 0, 0.033, 0.083, 0.25, 0.5, 1, 2, 4, 6, 10, and 24 h for the IV group and 0, 0.083, 0.25, 0.5, 1, 2, 4, 6, 10, 24, and 34 h for PO groups. Plasma samples mixed with IS (Ewha-18212) were analyzed by the HPLC system.

[4] = Stability of Ewha-18278 in rat plasma (short-term, long-term, freeze-thaw, post-preparative); type: in vitro ADME; conditions: n = 3; for Stability 37 °C, 6 h / Stability Freeze-thaw / Stability RT, 6 h / Stability −20 °C, 4-W / Stability −70 °C, 4-W: rat plasma
[5] = Solubility (aqueous / in co-solvent formulation); type: physicochemical
[6] = IV 2 mg/kg, diazepam injection-based formulation (1 mg/mL)
[7] = male, Sprague-Dawley, rat, plasma, iv, 2 mg/kg, IV 2 mg/kg, DMSO formulation (1 mg/mL)
[8] = male, Sprague-Dawley, rat, plasma, po, 20 mg/kg, PO 20 mg/kg, DMSO formulation (2 mg/mL)
[9] = male, Sprague-Dawley, rat, plasma, po, 20 mg/kg, PO 20 mg/kg, diazepam injection-based formulation (2 mg/mL)

CCCc1c(-c2ccccc2)nn(-c2ccccn2)c1O [Ewha-18278]
Effect on NOX4 activity (NOX4): directly interfering with the activity | Bone strength / cortical bone thickness [1]: induced bone strength by increasing cortical bone thickness | Effect on NOX1 activity (NOX1): directly interfering with the activity | Effect on responses of BMMs to RANKL [2]: inhibited | Effect on NOX2 activity (NOX2): directly interfering with the activity | Clt ([3]; IV 2 mg/kg, DMSO formulation (1 mg/mL)): 0.216 ± 0.084 L/h | Clt [3, 6]: 0.250 ± 0.072 L/h | Vd [3, 6]: 1.52 ± 1.17 L | F (absolute BA) ([3]; DMSO formulation (2 mg/mL)): 62.4% | F (absolute BA) ([3]; diazepam injection-based formulation (1 mg/mL)): 67.2% | F (absolute BA) ([3]; diazepam injection-based formulation (2 mg/mL)): 43.0% | Clt/F ([3]; PO 20 mg/kg, DMSO formulation (2 mg/mL)): 0.327 ± 0.164 L/h | AUCinf ([3]; PO 20 mg/kg, DMSO formulation (2 mg/mL), 20 mg/kg): 19400 ± 8690 ng·h/mL | BA (absolute), all groups / both formulations ([3]; PO 20 mg/kg, DMSO-based and diazepam injection-based formulations): more than 40% | Clt/F ([3]; PO 20 mg/kg, diazepam injection-based formulation (1 mg/mL)): 0.531 ± 0.370 L/h | Clt/F ([3]; PO 20 mg/kg, diazepam injection-based formulation (2 mg/mL)): 0.726 ± 0.553 L/h | Decrease of PK parameters (AUCinf, t1/2, absolute BA) in the higher concentration group ([3]; PO 20 mg/kg, diazepam injection-based formulation, 2 mg/mL vs 1 mg/mL): ~35% | Time of second peak in plasma concentration-time profile ([3]; PO 20 mg/kg, diazepam injection-based formulation, high concentration (2 mg/mL)): 10 h | Time of second peak in plasma concentration-time profile ([3]; PO 20 mg/kg, diazepam injection-based formulation, low concentration (1 mg/mL)): 6 h | Increase of AUCinf at low vs high concentration ([3]; PO, diazepam injection-based formulation, 1 mg/mL compared to 2 mg/mL): 1.6 fold | C0 ([3]; male, Sprague-Dawley, rat, plasma, IV 2 mg/kg, DMSO formulation (1 mg/mL)): 7240 ± 2450 ng/mL | Vd ([3]; male, Sprague-Dawley, rat, plasma, IV 2 mg/kg, DMSO formulation (1 mg/mL), read-out: Vd): 0.785 ± 0.154 L | AUC(0-inf) [3, 7]: 2860 ± 1090 ng·h/mL | half-life [3, 7]: 3.07 ± 2.01 h | AUC(0-inf) [3, 8]: 17900 ng·h/mL | Cmax [3, 8]: 4680 ± 2110 ng/mL | Tmax [3, 8]: 0.249 ± 0.166 h | Vd/F [3, 8]: 6.06 ± 2.32 L | half-life [3, 8]: 14.2 ± 4.76 h | Vd/F ([3]; male, Sprague-Dawley, rat, plasma, po, 20 mg/kg, PO 20 mg/kg, diazepam injection-based formulation (1 mg/mL)): 9.72 ± 5.17 L | AUC(0-inf) [3, 9]: 9250 ± 4420 ng·h/mL | Cmax [3, 9]: 6240 ± 2020 ng/mL | Tmax [3, 9]: 0.083 h | Vd/F [3, 9]: 7.9 ± 3.01 L | half-life [3, 9]: 8.96 ± 2.92 h | Stability Post-prep. ([4]; high QC concentration): 103% | Stability Post-prep. ([4]; low QC concentration): 103% | Stability 37 °C, 6 h ([4]; high QC concentration): 87.5% | Stability Freeze-thaw ([4]; high QC concentration): 86.0% | Stability RT, 6 h ([4]; high QC concentration): 93.4% | Stability −20 °C, 4-W ([4]; high QC concentration): 90.4% | Stability −70 °C, 4-W ([4]; high QC concentration): 97.5% | Stability 37 °C, 6 h ([4]; low QC concentration): 89.0% | Stability Freeze-thaw ([4]; low QC concentration): 90.4% | Stability −20 °C, 4-W ([4]; low QC concentration): 99.4% | Stability −70 °C, 4-W ([4]; low QC concentration): 100% | Stability RT, 6 h ([4]; low QC concentration, vs freshly prepared QC samples): 94.5% | Dissolution in co-solvents ([5]; mixture of propylene glycol, dehydrated ethanol, and water): completely dissolved | Solubility of the hydrochloride salt relative to free form #2 ([5]; salt formation): strongly enhanced the solubility | Aqueous solubility ([5]; water): highly insoluble in water
